Results on one compound are retold here after US4929751A, “Vinyl tricarbonyl compounds and methods of making the same” (Yale University, priority 1987, dated 1990).

SMILES strings stand for the structures.

What all share (experiment): disease category selectivity
What all share (assay type): cell-based

The test system of one assay is PS cell lines. An excerpt:
(§1) As described below, the data in Table 1 serve to display the testing results on disease category selectivity in a bar graph format. Bars projecting to the right of the reference (vertical line of asterisks) indicate greater than average sensitivity to the test compound. Each bar represents one power of ten in sensitivity, so that the results for OVCAR-5 (ovarian tumor) indicate a remarkable […] increase in sensitivity over the reference test.
(§2) Table 1 reports and illustrates the results obtained by testing t-butyl 2,3-dioxo-pent-4-enoate hydrate. The concentration of this compound found to inhibit the growth of each cell line listed under "CELL" by 50% is reported under "LOG(IC50)" as the logarithm of the concentration. The units of concentration are either molarity in which case an "M" is shown in parentheses next to the LOG(IC50) label, or micrograms per ml, in which case a "W" (for weight) is shown in parenthesis. The cell line names are grouped by disease type and the disease type names are listed on the far left.
(§3) The graph on the right depicts the data on the left in a format called a "MEAN GRAPH" which is designed to aid in the identification of differential growth inhibition. […] The interest in using this concept of differential growth inhibition as a criterion of activity in the screening system is to encourage the discovery of new types of anticancer agents having greater tissue specificity than cancer chemotherapeutic agents in use today.
(§4) The idea for the Mean Graph resulted from trying to detect differential growth inhibition in a bar graph format Experimentation led to a graph centered at the arithmetic mean (ML) of the logarithm of the IC50'a of all the cell line responses measured for a compound. The Mean Graph is constructed around a vertical reference (indicating ML) by projecting bars to the right or to the left. […] The lengths of the bars are proportional to the differences between the logarithms of the specific cell line IC50's and the overall mean value ML. These lengths represent differences in logarithms which are equivalent to the ratios of the specific IC50's to the geometric mean of all the IC50's. Therefore, a useful property of the Mean Graph format is the ability to compare patterns derived from IC50's measured in different units, e.g, micrograms per ml and molarity. The units cancel in the division process.
(§5) Differential growth inhibition is depicted as a bar projecting some distance to the right of ML. A bar projecting three log units to the right of ML, for example, would reflect a cellular sensitivity 1000 times greater than ML. While any degree of sensitivity greater than ML might theoretically be considered differential growth inhibition, in practice one must consider the experimental error in the measurement and at what point the degree of differential growth inhibition becomes meaningful in biological terms. The three values listed a the bottom of the graph provide the value of ML as "AVE LOG(IC50)", the greatest difference from ML as "DELTA" and the difference between the least sensitive cell line and the most sensitive cell line as the "RANGE".

In assay [1] the test system is RESISTL (resistant lung cancer) cell lines.
Source text: as §1, §2, §3, §4, §5

A further assay deals with breast cell lines.
Source text: as §1, §2, §3, §4, §5

The test system of assay [2] is central nervous system cell lines. As to conditions: CNS.
Source text: as §1, §2, §3, §4, §5

A further assay concerns colon cell lines.
Source text: as §1, §2, §3, §4, §5

For the next assay, the system named is leukemia cell lines. As to conditions: LEUK.
Source text: as §1, §2, §3, §4, §5

The test system of the next assay is melanoma cell lines. As to conditions: MEL.
Source text: as §1, §2, §3, §4, §5

The subject of assay [3] is nonsmall cell lung cancer cell lines. As to conditions: NSCLC.
Source text: as §1, §2, §3, §4, §5

In another assay the test system is ovarian cell lines.
Source text: as §1, §2, §3, §4, §5

The next assay has as its system renal cell lines.
Source text: as §1, §2, §3, §4, §5

The test system of assay [4] is resistant breast cancer cell lines. As to conditions: RESISTB.
Source text: as §1, §2, §3, §4, §5

For assay [5], the system named is small cell lung cancer cell lines. As to conditions: SCLC.
Source text: as §1, §2, §3, §4, §5

[6] abbreviates: mean LOG(IC50) of category, 1 cell line, read-out: MEAN CAT (converted).
The mark [7] stands for this setting: mean LOG(IC50) of category, 4 cell lines, read-out: MEAN CAT (converted).
Setting [8] is: mean LOG(IC50) of category, 5 cell lines, read-out: MEAN CAT (converted).

For the compound `C=CC(=O)C(O)(O)C(=O)OC(C)(C)C` [t-butyl 2,3-dioxo-pent-4-enoate hydrate], the “DIFF CAT” value in the assay with PS cell lines (difference from mean) is listed as 0.1; in assay [1] (difference from mean), 0.2; with breast cell lines (difference from mean), 0.1; in assay [2] (difference from mean), 0.2; in the assay on colon cell lines (difference from mean), -0.1; in the assay with leukemia cell lines (difference from mean) it was -0.4. Besides, the “DIFF CAT” value with melanoma cell lines (difference from mean) is 0; in [3] (difference from mean), 0; in the assay with ovarian cell lines (difference from mean) it was -0.2; in the assay with renal cell lines (difference from mean), 0.1; in assay [4] (difference from mean), 0.1; in assay [5] (difference from mean), 0. The IC50 was 100 µM in the assay with PS cell lines (setting [6]); 126 µM in [1] (setting [6]); 100 µM in the assay on breast cell lines (setting [6]); 100 µM in assay [2] (setting [7]); 63.1 µM in the assay with colon cell lines (setting [7]); 31.6 µM with leukemia cell lines (mean LOG(IC50) of category, 2 cell lines, read-out: MEAN CAT (converted)). The IC50 in the assay with melanoma cell lines (setting [8]) was 79.4 µM; in [3] (mean LOG(IC50) of category, 10 cell lines, read-out: MEAN CAT (converted)), 79.4 µM; with ovarian cell lines (setting [8]), 50.1 µM; with renal cell lines (mean LOG(IC50) of category, 3 cell lines, read-out: MEAN CAT (converted)) it was 79.4 µM; in assay [4] (setting [6]), 100 µM; in assay [5] (setting [8]), 79.4 µM.
